According to patent US10227329B2, “Compounds useful for treating disorders related to RET” (BLUEPRINT MEDICINES CORPORATION, priority 2016, dated 2019):

Experiments:
wild type RET = wild type RET (Homo sapiens (Human), UniProt P07949); assay: RET Wild Type Assay at KM (Caliper electrophoretic mobility shift); format: biochemical; details: 25 μM ATP (KM)
RET V804L = RET V804L (Homo sapiens (Human), UniProt P07949, V804L); assay: RET V804L Gatekeeper Mutant Assay at KM (Caliper electrophoretic mobility shift); format: biochemical; details: 10 μM ATP (KM), read-out: V480L Mutant
RET V804L, sequence (P07949 29-1114 V804L): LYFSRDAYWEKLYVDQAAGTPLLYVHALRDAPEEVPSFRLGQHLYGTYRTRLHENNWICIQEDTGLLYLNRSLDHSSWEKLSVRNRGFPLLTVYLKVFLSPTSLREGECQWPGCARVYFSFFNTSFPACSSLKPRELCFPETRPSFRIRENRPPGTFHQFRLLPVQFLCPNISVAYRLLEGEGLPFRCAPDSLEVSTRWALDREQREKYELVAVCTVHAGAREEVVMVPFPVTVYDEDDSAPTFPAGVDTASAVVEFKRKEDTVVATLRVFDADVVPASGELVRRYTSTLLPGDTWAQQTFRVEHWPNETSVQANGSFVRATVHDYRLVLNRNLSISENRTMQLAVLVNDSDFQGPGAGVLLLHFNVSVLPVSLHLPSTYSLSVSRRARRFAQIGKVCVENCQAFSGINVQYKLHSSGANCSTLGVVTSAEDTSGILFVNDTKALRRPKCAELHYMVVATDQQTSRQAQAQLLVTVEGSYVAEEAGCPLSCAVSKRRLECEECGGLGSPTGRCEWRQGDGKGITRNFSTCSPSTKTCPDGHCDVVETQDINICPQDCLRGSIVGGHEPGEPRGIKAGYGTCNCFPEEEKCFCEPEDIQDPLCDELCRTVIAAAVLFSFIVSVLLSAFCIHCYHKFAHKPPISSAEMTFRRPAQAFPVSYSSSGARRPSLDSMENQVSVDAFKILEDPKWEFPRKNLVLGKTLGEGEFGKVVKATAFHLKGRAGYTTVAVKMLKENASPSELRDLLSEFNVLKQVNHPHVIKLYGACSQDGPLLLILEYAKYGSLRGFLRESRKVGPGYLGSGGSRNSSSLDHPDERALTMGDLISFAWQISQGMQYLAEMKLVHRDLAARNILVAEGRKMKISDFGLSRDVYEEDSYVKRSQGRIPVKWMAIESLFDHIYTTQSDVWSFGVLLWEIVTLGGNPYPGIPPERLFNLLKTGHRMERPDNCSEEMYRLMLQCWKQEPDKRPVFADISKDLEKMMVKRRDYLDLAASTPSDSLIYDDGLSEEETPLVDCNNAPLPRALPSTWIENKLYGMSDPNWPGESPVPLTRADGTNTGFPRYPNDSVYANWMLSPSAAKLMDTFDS

wild type RET, sequence (P07949 29-1114): as the sequence (P07949 29-1114 V804L) above, with L776V counted along it

CCOC1(C(=O)N[C@@H](C)c2ccc(-n3cc(F)cn3)nc2)CN(c2cc(C)cc(Nc3cc(C)[nH]n3)n2)C1 [Compound 194, (S)-3-ethoxy-N-(1-(6-(4-fluoro-1H-pyrazol-1-yl)pyridin-3-yl)ethyl)-1-(4-methyl-6-((5-methyl-1H-pyrazol-3-yl)amino)pyridin-2-yl)azetidine-3-carboxamide]
IC50 (wild type RET): < 10 nM
IC50 (RET V804L): < 10 nM

COC1(C(=O)NCc2ccc(-n3cc(F)cn3)nc2)CCN(c2nc(C)cc(Nc3cc(C)[nH]n3)n2)CC1 [Compound 195]
IC50 (wild type RET): < 10 nM
IC50 (RET V804L): < 10 nM

COC1(C(=O)N[C@@H](C)c2ccc(-n3cc(F)cn3)nc2)CCN(c2nccc(Nc3cc(C)[nH]n3)n2)CC1 [Compound 196]
IC50 (wild type RET): < 10 nM
IC50 (RET V804L): < 10 nM

CCOC1(C(=O)N[C@@H](C)c2ccc(-n3cc(F)cn3)nc2)CN(c2nc(C)cc(Nc3cc(C)[nH]n3)n2)C1 [Compound 197]
IC50 (wild type RET): < 10 nM
IC50 (RET V804L): < 10 nM

CO[C@@]1(C(=O)N[C@@H](C)c2ccc(-n3cc(F)cn3)nc2)CN(c2nc(C)cc(Nc3cc(C)[nH]n3)n2)[C@@H]1C [Compound 198]
IC50 (wild type RET): < 10 nM
IC50 (RET V804L): < 10 nM

CO[C@]1(C(=O)N[C@@H](C)c2ccc(-n3cc(F)cn3)nc2)CN(c2nc(C)cc(Nc3cc(C)[nH]n3)n2)[C@H]1C [Compound 199]
IC50 (wild type RET): < 10 nM
IC50 (RET V804L): < 10 nM

Cc1cc(Nc2cc(C)[nH]n2)nc(N2CCC(F)(C(=O)N[C@@H](C)c3ccc(-n4cc(F)cn4)nc3)CC2)c1 [Compound 200]
IC50 (wild type RET): < 10 nM
IC50 (RET V804L): < 10 nM

COC1(C(=O)N[C@@H](C)c2ccc(-n3cccn3)nc2)CN(c2cc(C(F)F)cc(Nc3cc(C)[nH]n3)n2)C1 [Compound 201]
IC50 (wild type RET): < 10 nM
IC50 (RET V804L): < 10 nM

COC1(C(=O)N[C@@H](C)c2ccc(-n3cc(F)cn3)nc2)CN(c2nc(Nc3cc(C)[nH]n3)cc(C)c2F)C1 [Compound 202]
IC50 (wild type RET): < 10 nM
IC50 (RET V804L): < 10 nM

COC1(C(=O)NCc2ccc(-n3cc(C(F)F)cn3)nc2)CN(c2nc(C)cc(Nc3cc(C)[nH]n3)n2)C1 [Compound 203]
IC50 (wild type RET): 10 to 100 nM
IC50 (RET V804L): 10 to 100 nM

COC1(C(=O)NCc2cnc(-n3ccc(C(F)F)n3)cn2)CN(c2nc(C)cc(Nc3cc(C)[nH]n3)n2)C1 [Compound 205]
IC50 (wild type RET): 10 to 100 nM
IC50 (RET V804L): < 10 nM

Cc1cc(Nc2cc(C)[nH]n2)nc(N2CCC(CC#N)(C(=O)N[C@@H](C)c3ccc(-n4cccn4)nc3)CC2)n1 [Compound 206]
IC50 (wild type RET): < 10 nM
IC50 (RET V804L): < 10 nM

COC1(C(=O)NCc2ccc(-n3cccn3)nc2)CCN(c2nc(Nc3cc(C)[nH]n3)cc(C)c2C#N)CC1 [Compound 207]
IC50 (wild type RET): < 10 nM
IC50 (RET V804L): < 10 nM

COC1(C(=O)NCc2ccc(-n3cc(F)cn3)nc2)CN(c2cc(C(F)F)cc(Nc3cc(C)[nH]n3)n2)C1 [Compound 208]
IC50 (wild type RET): < 10 nM
IC50 (RET V804L): < 10 nM

CCC1(C(=O)NCc2ccc(-n3nc(C)cc3C)nc2)CCN(c2nc(C)cc(Nc3cc(C)[nH]n3)n2)CC1 [Compound 209]
IC50 (wild type RET): < 10 nM
IC50 (RET V804L): < 10 nM

Cc1cc(Nc2cc(C(F)F)cc(N3CC(F)(C(=O)N[C@@H](C)c4ccc(-n5cc(F)cn5)nc4)C3)n2)n[nH]1 [Compound 210]
IC50 (wild type RET): < 10 nM
IC50 (RET V804L): < 10 nM

COC1(C(=O)NCc2ccc(-n3nc(C)cc3C)nc2)CCN(c2cc(C)cc(Nc3cc(C)[nH]n3)n2)CC1 [Compound 211]
IC50 (wild type RET): < 10 nM
IC50 (RET V804L): < 10 nM

COC1(C(=O)N[C@@H](C)c2ccc(-n3cc(F)cn3)nc2)CN(c2nc(Nc3cc(C)[nH]n3)cc(C)c2C#N)C1 [Compound 212]
IC50 (wild type RET): < 10 nM
IC50 (RET V804L): < 10 nM

COCCC1(C(=O)NCc2ccc(-n3cccn3)nc2)CCN(c2nc(C)cc(Nc3cc(C)[nH]n3)n2)CC1 [Compound 213]
IC50 (wild type RET): < 10 nM
IC50 (RET V804L): < 10 nM

COC1(C(=O)N(C)[C@@H](C)c2ccc(-n3cccn3)nc2)CCN(c2nc(C)cc(Nc3cc(C)[nH]n3)n2)CC1 [Compound 214]
IC50 (wild type RET): < 10 nM
IC50 (RET V804L): < 10 nM

COC1(C(=O)NCc2ccc(-n3nc(C)cc3C)nc2)CCN(c2nc(C)cc(Nc3cc(C)[nH]n3)n2)CC1 [Compound 215]
IC50 (wild type RET): < 10 nM
IC50 (RET V804L): < 10 nM

COC1(C(=O)N[C@@H](C)c2ccc(-n3cc(F)cn3)nc2)CCN(c2cc(C)cc(Nc3cc(C)[nH]n3)n2)CC1 [Compound 216]
IC50 (wild type RET): < 10 nM
IC50 (RET V804L): < 10 nM

Cc1cc(Nc2cc(C)[nH]n2)nc(N2CCC(CO)(C(=O)N[C@@H](C)c3ccc(-n4cc(F)cn4)nc3)CC2)c1 [Compound 217]
IC50 (wild type RET): < 10 nM
IC50 (RET V804L): < 10 nM

Cc1cc(Nc2cc(C)[nH]n2)nc(N2CCC(CO)(C(=O)N[C@@H](C)c3ccc(-n4cc(F)cn4)nc3)CC2)n1 [Compound 219]
IC50 (wild type RET): < 10 nM
IC50 (RET V804L): < 10 nM

COC1(C(=O)N[C@@H](C)c2ccc(-n3cc(F)cn3)nc2)CCN(c2cc(C)nc(Nc3cc(C)[nH]n3)n2)CC1 [Compound 220]
IC50 (wild type RET): < 10 nM
IC50 (RET V804L): < 10 nM

COC1(C(=O)N[C@@H](C)c2cnc(-n3cc(F)cn3)cn2)CCN(c2nc(C)cc(Nc3cc(C)[nH]n3)n2)CC1 [Compound 221]
IC50 (wild type RET): < 10 nM
IC50 (RET V804L): < 10 nM

COC1(C(=O)N[C@@H](C)c2ccc(-n3cccn3)nc2)CCN(c2nc(Nc3cc(C)[nH]n3)cc(C)c2C#N)CC1 [Compound 222]
IC50 (wild type RET): < 10 nM
IC50 (RET V804L): < 10 nM

COC1(C(=O)N[C@@H](C)c2ccc(-n3cc(F)cn3)nc2)CN(c2cc(C(F)F)cc(Nc3cc(C)[nH]n3)n2)C1 [Compound 223]
IC50 (wild type RET): < 10 nM
IC50 (RET V804L): < 10 nM

Cc1cc(N2CCC(CC#N)(C(=O)N[C@@H](C)c3ccc(-n4cc(F)cn4)nc3)CC2)nc(Nc2cc(C)[nH]n2)n1 [Compound 224]
IC50 (wild type RET): < 10 nM
IC50 (RET V804L): < 10 nM

Cc1cc(Nc2cc(C3CC3)[nH]n2)nc(N2CCC(C)(C(=O)N[C@@H](C)c3ccc(-n4cc(F)cn4)nc3)CC2)c1 [Compound 225]
IC50 (wild type RET): < 10 nM
IC50 (RET V804L): < 10 nM

COC1(C(=O)NCc2ccc(-n3cc(F)cn3)nc2)CCN(c2nc(Nc3cc(C)[nH]n3)cc(C)c2C#N)CC1 [Compound 226]
IC50 (wild type RET): < 10 nM
IC50 (RET V804L): < 10 nM

COC1(C(=O)N[C@@H](C)c2ccc(-n3cc(F)cn3)nc2)CCN(c2nc(Nc3cc(C)[nH]n3)cc(C)c2C#N)CC1 [Compound 227]
IC50 (wild type RET): < 10 nM
IC50 (RET V804L): < 10 nM

Cc1cc(Nc2cc(C)[nH]n2)nc(N2CCC(OCC(F)(F)F)(C(=O)NCc3ccc(-n4cccn4)nc3)CC2)n1 [Compound 228]
IC50 (wild type RET): < 10 nM
IC50 (RET V804L): < 10 nM
